Patent US10168342B2, “Lipid probes and uses thereof” (THE SCRIPPS RESEARCH INSTITUTE, priority 2015, dated 2019)

Assays:
[1] = target: T1, A-DA lipid probe targets in A549 cells (Homo sapiens, UniProt P45880); test: In situ competitive SILAC profiling with A-DA probe in (PMA-stimulated) A549 cells; settings: A549 cells, A-DA probe
T1 sequence (P45880 1-294): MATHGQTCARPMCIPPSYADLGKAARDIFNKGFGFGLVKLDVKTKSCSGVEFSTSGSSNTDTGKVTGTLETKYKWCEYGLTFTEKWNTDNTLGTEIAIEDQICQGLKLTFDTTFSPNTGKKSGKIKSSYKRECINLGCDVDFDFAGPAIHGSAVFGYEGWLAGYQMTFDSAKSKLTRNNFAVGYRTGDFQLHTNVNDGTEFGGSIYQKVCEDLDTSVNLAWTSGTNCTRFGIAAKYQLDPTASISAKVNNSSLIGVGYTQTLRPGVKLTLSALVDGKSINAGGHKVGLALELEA

[2] = tested on: NAEs, NATs, AA and 2-AG in Neuro2a cells; test: Targeted LC-MS (MRM) analysis of lipids from Neuro2a cells; format: cell-based, mouse; settings: for NAEs when co-treated with PF-7845 (1 μM) / AA levels: 10 μM; for AA levels / 2-AG levels / cellular concentrations of NAEs and NATs: Neuro2a cells; for 2-AG levels / cellular concentrations of NAEs and NATs: 10 μM (PF-7845 1 μM); for cellular concentrations of NAEs and NATs: 6 h
Description: Discovery metabolite profiling was performed as described by Saghatelian et al., “Assignment of endogenous substrates to enzymes by global metabolite profiling,” Biochemistry 43:14332-14339 (2004) with several modifications. […] The media from the cells was removed and cells were washed with DPBS (2×5.0 mL) before adding freshly prepared media solutions containing vehicle or compound. After incubating for 6 h at 37° C. and subsequent removal of the media, the cells were harvested by scrapping in cold DPBS (3 mL) and pelleted by centrifugation in glass vials. The pellets were washed once with cold DPBS (3 mL) and then cold […] (2:1) (3 mL) was added. After vortexing, the vials were centrifuged (3,000×g, 10 min, 4° C.) and the bottom (organic) layer was transferred to a new glass vial and concentrated under a stream of N2. Samples were stored at −80° C. until the day of analysis when they were reconstituted in Mobile Phase A (100 μL, see below).
Neuro2a cells were treated and lipids extracted as described above. A mixture of internal standards [AEA-d4 (10 pmol), 2-AG-d5 (100 pmol), AA-d8 (100 pmol), PEA-d4 (100 pmol), PDA (1.0 nmol)] was added to the organic phase prior to extracting cells. NAEs, MAGs, AA and NATs were analyzed similarly to previously described methods (Saghatelian et al., 2004). The following MS parameters were used to measure the indicated metabolites by MRM (precursor ion, product ion, collision energy, polarity): NAE 20:4 (AEA) (348, 62, 12, positive), AEA-d4 (352, 66, 12, positive), NAE 16:0 (PEA) (300, 62, 12, positive), PEA-d4 (304, 62, 12, positive), NAE 18:0 (328, 62, 12, positive), NAE 18:1 (326, 62, 12, positive), NAE 18:2 (324, 62, 12, positive), 2-AG (379, 287, 8, positive), 2-AG-d5 (384, 287, 8, positive), AA (303, 259, 4, negative), AA-d8 (311, 267, 4, negative), NAT 20:4 (410, 80, 35, negative), NAT 22:1 (444, 80, 35, negative), NAT 24:1 (472, 80, 35, negative), NAT 24:0 (474, 80, 35, negative), NAT 26:0 (502, 80, 35, negative). The indicated lipids were quantified by measuring the area under the peak relative to an internal standard (AEA-d4 for AEA and NAE 18:2; PEA-d4 for PEA, NAE 18:1 and NAE 18:0; 2-AG-d5 for 2-AG; AA-d8 for AA and 20:4 NAT; PDA for all other NATs).

humanized rat FAAH = target: T2, humanized rat FAAH (Rattus norvegicus, UniProt P97612, A377T/F194Y/I491V/L192F/S435N/V495M); test: FAAH activity by AEA hydrolysis, purified enzyme; format: biochemical; settings: for inhibition of FAAH activity (AEA hydrolysis): 50 or 100 μM; for IC50: read-out: IC50 against purified recombinant FAAH
T2 sequence (P97612 30-579 L192F/F194Y/A377T/S435N/I491V/V495M limits assumed): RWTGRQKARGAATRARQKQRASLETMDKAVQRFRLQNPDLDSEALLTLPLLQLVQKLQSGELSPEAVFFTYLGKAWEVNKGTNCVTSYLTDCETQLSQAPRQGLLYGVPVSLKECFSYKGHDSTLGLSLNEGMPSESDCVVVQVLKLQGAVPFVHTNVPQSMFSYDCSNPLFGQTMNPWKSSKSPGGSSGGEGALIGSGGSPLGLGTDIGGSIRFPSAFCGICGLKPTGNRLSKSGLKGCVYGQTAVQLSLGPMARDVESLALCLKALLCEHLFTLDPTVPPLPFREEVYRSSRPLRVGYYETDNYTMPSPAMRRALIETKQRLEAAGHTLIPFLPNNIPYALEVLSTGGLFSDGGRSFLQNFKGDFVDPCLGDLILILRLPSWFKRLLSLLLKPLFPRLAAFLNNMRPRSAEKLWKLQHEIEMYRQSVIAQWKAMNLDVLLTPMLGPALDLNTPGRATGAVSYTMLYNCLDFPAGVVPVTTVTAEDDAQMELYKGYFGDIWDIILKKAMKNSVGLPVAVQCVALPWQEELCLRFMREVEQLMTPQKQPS
Description: FAAH activity was measured by AEA hydrolysis: The membrane fraction of Neuro2a lysates (200 μL, 2.0 mg/mL) was incubated with DMSO or the test compound (1.0-250 μM) at 37° C. After 15 min, AEA-d8 (25 μM) was added and the samples were incubated for an additional 30 min and then quenched by the addition of two volumes of CHCl3:MeOH (2:1) containing pentadecanoic acid (PDA) (1.0 nmol) as an internal standard. After centrifuging (2,000×g, 5 min, 4° C.) to separate the organic and aqueous layers, the lower organic layer was transferred to a clean vial and analyzed by LC/MS as previously described. (Long et al., 2009) Pure humanized rat FAAH (Mileni et al., 2008) (5.0 ng/μL) was assayed in the same manner. Product levels were quantified by determining peak areas in relation to PDA.

SMILES: O=C(/C=C/c1cccnc1)NCCCCC1CCN(C(=O)c2ccccc2)CC1 [FK-866, reference compound]
- SILAC ratio, VDAC2 (P45880) ([1]; competitor 25 μM): 1.2

SMILES: CN1CCN(C(=O)c2c(-c3ccccc3)c3cc([N+](=O)[O-])ccc3n2C)CC1 [KML110, (1-Methyl-5-nitro-3-phenyl-1H-indol-2-yl)(4-methylpiperazin-1-yl)methanone]
- NAEs when co-treated with PF-7845 (1 μM) [2]: do not produce elevations
- AA levels [2]: do not affect
- 2-AG levels [2]: modest increase
- cellular concentrations of NAEs and NATs [2]: elevated
- inhibition of FAAH activity (AEA hydrolysis) (humanized rat FAAH): do not substantially inhibit
- IC50 (humanized rat FAAH): > 100 µM

SMILES: CN1CCN(C(=O)c2[nH]c3ccc([N+](=O)[O-])cc3c2-c2ccccc2)CC1 [MJN228, (4-Methylpiperazin-1-yl)(5-nitro-3-phenyl-1H-indol-2-yl)methanone]
- NAEs when co-treated with PF-7845 (1 μM) [2]: do not produce elevations
- AA levels [2]: do not affect
- 2-AG levels [2]: modest increase
- cellular concentrations of NAEs and NATs [2]: elevated
- inhibition of FAAH activity (AEA hydrolysis) (humanized rat FAAH): do not substantially inhibit
- IC50 (humanized rat FAAH): > 100 µM

SMILES: C=CCN(C)CCCCCCOc1ccc(C(=O)c2ccc(Br)cc2)c(F)c1 [Ro488071]
- SILAC ratio, VDAC2 (P45880) ([1]; competitor 5 μM): 1.5
- SILAC ratio, VDAC2 (P45880) ([1]; competitor 50 μM): 3.4
